System: brown dog ticks (R. sanguineus)
Experiment: Further efficacy study against brown dog ticks on beagles (Example 6)
Format: in vivo, Rhipicephalus sanguineus
Protocol: Beagles were randomly assigned to 5 treatment groups of 4 animals each, and one untreated control group of 3 animals.
The dogs were infested with approximately 80 fleas (C. felis) and 60 ticks (R. sanguineus) on Days −2, 7, 14, 21, 28, 35, 42, and 49. Fleas and ticks were counted on Day 2 (approximately 48 h after treatment), as well as Days 9, 16, 23, 30, 37, 44, and 51 (approximately 48 hr after each post-treatment re-infestation) to evaluate the insecticidal and acaricidal activity in the treated groups. In Group B, an additional flea and tick infestation was conducted on Day 56, with a respective flea and tick count on Day 58. In addition to the flea and tick counts, blood samples were collected before the treatments, as well as approximately 2 hr, 4 hr, 8 hr, 24 hr, and 72 hr after the treatment on Day Zero, and then once on each of Days 7, 14, 21, 28, 35, 42, 49, and 56. The concentration of Compound 11-1 in blood plasma was analyzed by HPLC/MS/MS. The LOQ of this method was 5 ng/ml.

Cc1cc(C2=NOC(c3cc(Cl)cc(Cl)c3)(C(F)(F)F)C2)ccc1C(=O)NCC(=O)NCC(F)(F)F (racemic) [Compound 11-1, 4-[5-(3,5-dichlorophenyl)-5-trifluoromethyl-4,5-dihydroisoxazol-3-yl]-2-methyl-N-[(2,2,2-trifluoro-ethylcarbamoyl)-methyl]-benzamide]
Efficacy against brown dog ticks (Group A: 1 mg/kg oral tablet, Day 2): 99.4
Efficacy against brown dog ticks (Group A: 1 mg/kg oral tablet, Day 9): 99.3
Efficacy against brown dog ticks (Group A: 1 mg/kg oral tablet, Day 16): 98.3
Efficacy against brown dog ticks (Group A: 1 mg/kg oral tablet, Day 23): 98.2
Efficacy against brown dog ticks (Group A: 1 mg/kg oral tablet, Day 30): 98.9
Efficacy against brown dog ticks (Group A: 1 mg/kg oral tablet, Day 37): 94.6
Efficacy against brown dog ticks (Group A: 1 mg/kg oral tablet, Day 44): 82.0
Efficacy against brown dog ticks (Group A: 1 mg/kg oral tablet, Day 51): 82.0
Efficacy against brown dog ticks (Group B: 1 mg/kg subcutaneous injectable solution, Day 2): 100
Efficacy against brown dog ticks (Group B: 1 mg/kg subcutaneous injectable solution, Day 9): 99.3
Efficacy against brown dog ticks (Group B: 1 mg/kg subcutaneous injectable solution, Day 16): 100
Efficacy against brown dog ticks (Group B: 1 mg/kg subcutaneous injectable solution, Day 23): 98.8
Efficacy against brown dog ticks (Group B: 1 mg/kg subcutaneous injectable solution, Day 30): 99.5
Efficacy against brown dog ticks (Group B: 1 mg/kg subcutaneous injectable solution, Day 37): 98.8
Efficacy against brown dog ticks (Group B: 1 mg/kg subcutaneous injectable solution, Day 44): 95.1
Efficacy against brown dog ticks (Group B: 1 mg/kg subcutaneous injectable solution, Day 51): 88.8
Efficacy against brown dog ticks (Group B: 1 mg/kg subcutaneous injectable solution, Day 58): 74.0
Efficacy against brown dog ticks (Group C: 1 mg/kg topical spot-on with absorption enhancer, Day 2): 81.9
Efficacy against brown dog ticks (Group C: 1 mg/kg topical spot-on with absorption enhancer, Day 9): 98.7
Efficacy against brown dog ticks (Group C: 1 mg/kg topical spot-on with absorption enhancer, Day 16): 94.8
Efficacy against brown dog ticks (Group C: 1 mg/kg topical spot-on with absorption enhancer, Day 23): 98.2
Efficacy against brown dog ticks (Group C: 1 mg/kg topical spot-on with absorption enhancer, Day 30): 96.2
Efficacy against brown dog ticks (Group C: 1 mg/kg topical spot-on with absorption enhancer, Day 37): 87.0
Efficacy against brown dog ticks (Group C: 1 mg/kg topical spot-on with absorption enhancer, Day 44): 76.5
Efficacy against brown dog ticks (Group C: 1 mg/kg topical spot-on with absorption enhancer, Day 51): 55.3
Efficacy against brown dog ticks (Group D: 1 mg/kg topical spot-on with absorption enhancer and spreading agent, Day 2): 83.1
Efficacy against brown dog ticks (Group D: 1 mg/kg topical spot-on with absorption enhancer and spreading agent, Day 9): 96.1
Efficacy against brown dog ticks (Group D: 1 mg/kg topical spot-on with absorption enhancer and spreading agent, Day 16): 98.3
Efficacy against brown dog ticks (Group D: 1 mg/kg topical spot-on with absorption enhancer and spreading agent, Day 23): 98.2
Efficacy against brown dog ticks (Group D: 1 mg/kg topical spot-on with absorption enhancer and spreading agent, Day 30): 96.2
Efficacy against brown dog ticks (Group D: 1 mg/kg topical spot-on with absorption enhancer and spreading agent, Day 37): 94.1
Efficacy against brown dog ticks (Group D: 1 mg/kg topical spot-on with absorption enhancer and spreading agent, Day 44): 73.8
Efficacy against brown dog ticks (Group D: 1 mg/kg topical spot-on with absorption enhancer and spreading agent, Day 51): 63.4
Efficacy against brown dog ticks (Group E: 1 mg/kg topical spot-on in ethyl lactate, Day 2): 70.6
Efficacy against brown dog ticks (Group E: 1 mg/kg topical spot-on in ethyl lactate, Day 9): 90.2
Efficacy against brown dog ticks (Group E: 1 mg/kg topical spot-on in ethyl lactate, Day 16): 95.9
Efficacy against brown dog ticks (Group E: 1 mg/kg topical spot-on in ethyl lactate, Day 23): 91.5
Efficacy against brown dog ticks (Group E: 1 mg/kg topical spot-on in ethyl lactate, Day 30): 97.8
Efficacy against brown dog ticks (Group E: 1 mg/kg topical spot-on in ethyl lactate, Day 37): 89.2
Efficacy against brown dog ticks (Group E: 1 mg/kg topical spot-on in ethyl lactate, Day 44): 79.8
Efficacy against brown dog ticks (Group E: 1 mg/kg topical spot-on in ethyl lactate, Day 51): 59.6

Reference: patent US20240239759A1, “ISOXAZOLINE COMPOSITIONS AND THEIR USE AS ANTIPARASITICS” (Intervet Inc., priority 2007, published 2024)
